Results from patent US20190125704A1, “PAIN RELIEF COMPOSITION” (priority 2016, published 2019).
Where “and” joins values, the source holds several entries; their conditions need not be identical. Equal values may be shown once.

Test system: TRPV ion channels
Assay: TRPV ion channel activity: 2-APB-induced intracellular calcium change in f11 nociceptive sensory cells (Fluo-4-AM)
Type: cell-based, white rats
Settings: f11 cell lines pre-treated with the compound for 24 hours, then 2-APB
Experimental: To investigate the activity of the compound of Formula 1 isolated in Example 1, pain relief effects were evaluated. The pain relief was confirmed by identifying intracellular calcium levels and signaling pathways.
After f11 nociceptive sensory cell lines in white rats incubated with the compound of Formula 1 to 50% confluence for 24 hours were pretreated, TRPV ion channel activities were measured. The f11 cell lines were treated with 2-APB (2-aminoethoxydiphenyl borate) as a pre-activator for TRPV ion channels, and intracellular calcium changes, which are triggered in response to the 2-APB treatment, were evaluated using a Fluo-4-AM fluorescent dye on a real time basis.

`CC(C)c1ccc2c(c1)C=C[C@H]1[C@](C)(C(=O)O)CCC[C@]21C` [Formula 1, abieta-6,8,11,13-tetraaen-18-oic acid] was tested, and the “increase in the intracellular calcium level induced by 2-APB” value (Fluo-4-AM fluorescent dye, real time) was “strongly inhibited” and the “intracellular calcium level after 2-APB treatment (tabulated data of FIG. 8, individual values)” value (Fluo-4-AM, compared with untreated control group) was 1.1293 and 1.1714 and 1.1656 and 1.434 and 1.8663 and 1.3893 and 1.1031 and 1.2503 and 1.4131 and 1.3008 and 1.2251 and 1.1536 and 1.125 and 1.1572.
